The values below come from patent US5277897A, “In vivo enhancement of cellular accumulation of lipophilic cationic organometallic compounds by reduction of intramembrane potential” (Brigham and Women's Hospital, priority 1992, dated 1994).

Data set [1] concerns cultured chick myocardial cells. The note with it: cited from earlier work.
Data set [2] deals with cultured chick heart cells. The experiment in a line: Influence of TPB and CCCP on (membrane potential-independent) accumulation of Tc-MIBI (FIG. 4). The data set is classed as cell-based. The note with it: CCCP 5 uM; presence and absence of TPB; P<0.001. Here is the method: FIG. 4. […] Preparations were incubated for the times indicated in 5.4 mM Ko control loading buffer containing tracer Tc-MIBI and TPB together (Δ) or in loading buffer containing Tc-MIBI alone (.quadrature.). For the latter incubation, TPB was added to the loading buffer at the arrow and cell content of Tc-MIBI subsequently determined (o). Under each condition, CCCP was added to the loading buffers as indicated by the arrows and cell content of Tc-MIBI determined ( , , ·). Each point is the mean ±SEM of 3 determinations.
(§1) Monolayers of spontaneously contractile chick ventricular myocardial cells were obtained from disaggregated 10-day old chick embryo hearts by a slight modification of previously published methods (Horres, C. R., et al., In Pinson, A. (ed.), The Heart Cell in Culture, Boca Raton, CRC Press, pp. 77-108 (1987)). Hearts were trimmed of connective tissue and atria, finely minced and serially exposed to 0.024% (w/v) trypsin in Ca^2+ - and Mg^2+ - free Earle's salt solution for 7 minutes at 37° C. Gentle trituration and agitation on an orbital shaker bath aided disaggregation. Cells released from the first exposure were discarded and cells aspirated from the next four exposures were then added to an equal volume of trypsin deactivating solution consisting of ice-cold culture medium. Cells were centrifuged at 400 g for 10 minutes, resuspended and combined in culture medium, counted with a hemocytometer and diluted to yield a suspension of 5×10^5 cells/ml. 12 ml of suspension were incubated in 100 mm plastic culture dishes containing 7 coverslips (25 mm diameter) placed on the bottom of each dish to serve as substrate for cell growth. Cells were maintained in a humidified atmosphere of 5% CO2 /95% air for 3-4 days yielding a confluent layer of spontaneously contractile myocytes on each coverslip.
Radioactive uptake methods have been described in detail (Piwnica-Worms, D., et al, Circ. (in press). Briefly, coverslips with confluent cells were removed from culture media and pre-equilibrated for 40-60 seconds in MEBSS buffer. Uptake and retention experiments were initiated by immersion of coverslips in 60 mm glass Pyrex dishes containing loading solution consisting of buffer with 0.1-0.6 nM [^99m Tc-MIBI] (0.01-0.4 Ci/nmole; 25-100 uCi/ml). Preparations were removed at various times and rinsed three times in 25 ml volumes of ice-cold (2° C.) isotope-free buffer for 8 seconds each to clear extracellular spaces. Preparations and aliquots of the loading buffer and stock solutions were counted in a well-type sodium iodide gamma counter after which cell protein on each coverslip was extracted in 1% sodium dodecylsulfate with 10 mM sodium borate and assayed by the method of Lowry (Lowry, O. H., et al., J. Biol. Chem. 193:265-275 (1951)). Tc-MIBI binding to glass coverslips without cells was used as an estimate of non-specific adhesion to the substrate ([…] obtained with cellular preparations); this value was subtracted from total uptake determinations to derive the cell-associated counts. Use of generator equilibrium equations (Lamson, M. L., et al., i J. Nucl. Med. 16:639-641 (1975)) allowed calculation of absolute moles of Tc-MIBI in solutions and preparations. Results were therefore expressed as fmol cellular Tc-MIBI/mg protein per nM extracellular Tc-MIBI concentration. […]

For data set [3], the system named is cultured chick heart cells. Nature of the data set: Effect of MSA on Tc-MIBI net accumulation (FIG. 3). It is filed as cell-based. The note with it: MSA 5.4 mM. Here is the method:
FIG. 3. Effect of MSA on Tc-MIBI net accumulation. Preparations were incubated for the times indicated in Tc-MIBI loading buffer containing 5.4 mM KCl (.quadrature., .smallcircle.) or 5.4 mM K-MSA ( , ·; prepared by equimolar substitution of K-MSA KCl) in the absence (.quadrature., ) or presence (.smallcircle., ·) of TPB (10^-5 M). Each point represents the mean ±SEM of 3 determinations.
Control buffer was a modified Earle's balanced salt solution (MEBSS) with the following composition (mN) Na^30, 145; K^+, 5.4; Ca^2, 1.2; Mg^2+, 0.8; Cl, 152; H2 PO4, 0.8; SO4^2-, 0.8; dextrose, 5.6; HEPES, 4.0; and bovine calf serum, 1% (v/v); […]; 37° C. K-methanesulfonate was made by titration of methanesulfonic acid with KOH (Piwnica-Worms, D., et al., J. Gen. Physiol. 81:731-748 (1983)) and replaced […] in some solutions by equimolar substitution where indicated. Natetraphenylborate, CCCP, bumetanide and valinomycin were dissolved into DMSO prior to addition to buffer. DMSO alone has no significant affect on contractile activity, action potential configuration (Lieberman, M., et al., Dev. Biol. 31:380-403 (1973)) or Tc-MIBI uptake kinetics (Piwnica-Worms, D., et al., Circ. (in press)).
(§2) Monolayers of spontaneously contractile chick ventricular myocardial cells were obtained from disaggregated 10-day old chick embryo hearts by a slight modification of previously published methods (Horres, C. R., et al., In Pinson, A. (ed.), The Heart Cell in Culture, Boca Raton, CRC Press, pp. 77-108 (1987)). […] Cells were centrifuged at 400 g for 10 minutes, resuspended and combined in culture medium, counted with a hemocytometer and diluted to yield a suspension of 5×10^5 cells/ml. […]
Radioactive uptake methods have been described in detail (Piwnica-Worms, D., et al, Circ. (in press). Briefly, coverslips with confluent cells were removed from culture media and pre-equilibrated for 40-60 seconds in MEBSS buffer. Uptake and retention experiments were initiated by immersion of coverslips in 60 mm glass Pyrex dishes containing loading solution consisting of buffer with 0.1-0.6 nM [^99m Tc-MIBI] (0.01-0.4 Ci/nmole; 25-100 uCi/ml). Preparations were removed at various times and rinsed three times in 25 ml volumes of ice-cold (2° C.) isotope-free buffer for 8 seconds each to clear extracellular spaces. Preparations and aliquots of the loading buffer and stock solutions were counted in a well-type sodium iodide gamma counter after which cell protein on each coverslip was extracted in 1% sodium dodecylsulfate with 10 mM sodium borate and assayed by the method of Lowry (Lowry, O. H., et al., J. Biol. Chem. 193:265-275 (1951)). […]

Data set [4] relates to cells and mitochondria. The note with it: typical loading activities; cited from earlier work.
The test system of data set [5] is cultured chick heart cells. Nature of the data set: Effect of phloretin, alone or with TPB, on net uptake of Tc-MIBI in cultured chick heart cells (FIG. 7, 8). It is filed as cell-based. Here is the method:
FIG. 7. Effect of phloretin on net accumulation of Tc-M1B1 in cultured heart cells. Preparations were incubated for the times indicated in Tc-MIBI loading buffer in the absence (.quadrature.) or presence of phloretin ( , 10^-7 M; , 10^-4 M). Each point represents the mean ±SEM of 3-4 determinations.
FIG. 8. Effect of phloretin and tetraphenylborate together on net uptake of Tc-MB1 in cultured chick heart cells. Preparations were incubated in MEBSS containing Tc-MIBI for 30 minutes in the absence (control) or presence of tetraphenylborate and phloretin each alone or in combination as indicated on the abscissa. Each group of four conditions (two groups in A and one group in B) represent separate cultures. Error bars indicate ±SEM for three or more determinations.
as §2
Radioactive uptake methods have been described in detail (Piwnica-Worms, D., et al, Circ. (in press). Briefly, coverslips with confluent cells were removed from culture media and pre-equilibrated for 40-60 seconds in MEBSS buffer. Uptake and retention experiments were initiated by immersion of coverslips in 60 mm glass Pyrex dishes containing loading solution consisting of buffer with 0.1-0.6 nM [^99m Tc-MIBI] (0.01-0.4 Ci/nmole; 25-100 uCi/ml). Preparations were removed at various times and rinsed three times in 25 ml volumes of ice-cold (2° C.) isotope-free buffer for 8 seconds each to clear extracellular spaces. […] Results were therefore expressed as fmol cellular Tc-MIBI/mg protein per nM extracellular Tc-MIBI concentration. […]

Data set [6] concerns cultured chick heart cells. Nature of the data set: Effect of valinomycin on tetraphenylborate enhancement of Tc-MIBI accumulation in high Ko buffer (Table 1). The data set is classed as cell-based. The settings on record: valinomycin 1 ug/ml; high K buffer. Here is the method:
as §1
Radioactive uptake methods have been described in detail (Piwnica-Worms, D., et al, Circ. (in press). Briefly, coverslips with confluent cells were removed from culture media and pre-equilibrated for 40-60 seconds in MEBSS buffer. Uptake and retention experiments were initiated by immersion of coverslips in 60 mm glass Pyrex dishes containing loading solution consisting of buffer with 0.1-0.6 nM [^99m Tc-MIBI] (0.01-0.4 Ci/nmole; 25-100 uCi/ml). Preparations were removed at various times and rinsed three times in 25 ml volumes of ice-cold (2° C.) isotope-free buffer for 8 seconds each to clear extracellular spaces. Preparations and aliquots of the loading buffer and stock solutions were counted in a well-type sodium iodide gamma counter after which cell protein on each coverslip was extracted in 1% sodium dodecylsulfate with 10 mM sodium borate and assayed by the method of Lowry (Lowry, O. H., et al., J. Biol. Chem. 193:265-275 (1951)). Tc-MIBI binding to glass coverslips without cells was used as an estimate of non-specific adhesion to the substrate ([…] obtained with cellular preparations); this value was subtracted from total uptake determinations to derive the cell-associated counts. Use of generator equilibrium equations (Lamson, M. L., et al., i J. Nucl. Med. 16:639-641 (1975)) allowed calculation of absolute moles of Tc-MIBI in solutions and preparations. Results were therefore expressed as fmol cellular Tc-MIBI/mg protein per nM extracellular Tc-MIBI concentration. Division of this value by the cell water space (6.9 ul/mg protein; Chiu, M. L., et al., J. Nucl. Med. (31:1646-1653(1990)) yields a nominal intracellular/extracellular Tc-MIBI accumulation ratio neglecting subcellular compartmentation of the agent.
To further explore the influence of TPB on any potential-independent accumulation of Tc-MIBI in myocytes, preparations were exposed to 130 mM K° 20 mM Clo buffer (Table 1). […] Equilibration of intracellular and extracellular spaces occurred in the presence of high K buffer plus valinomycin under all conditions (in/out ration ~1; P=NS) indicating the lack of any significant potential-independent membrane binding of Tc-MIBI.
Preparations were incubated in high Ko low Clo loading buffer +/- valinomycin (1 ug/ml) for 20 minutes in the presence of TPB (10^-5 M) or for 40 minutes in its absence to determine peak accumulation of Tc-MIBI under each condition. Values are the mean ±SEM. Tc-MIBI in/out ratios were obtained by dividing net uptake values by the cell water space of […] (Chiu, M. L., et al., J. Nucl. 31:1646-1653 (1990)). +p<0.01; * p<0.001 compared to net uptake in 130 mM Ko buffer.

In the case of `N#CC(C#N)=NNc1cccc(Cl)c1` [CCCP, carbonyl cyanide-m-chlorphenylhydrazone, reference compound], the “unidirectional influx and net cellular accumulation of Tc-MIBI” value in data set [1] (CCCP, mitochondrial depolarization) was “decreases the unidirectional influx and net cellular accumulation of TC-MIBI”. Moreover, the “release of myocellular Tc-MIBI” value in data set [2] was “rapid and near complete release of myocellular Tc-MIBI”. Turning to `CS(=O)(=O)O` [MSA, methanesulfonate, reference compound], the “uptake kinetics or equilibrium content of Tc-MIBI” value in data set [3] is reported as “did not significantly alter uptake kinetics or equilibrium content of Tc-MIBI”. For the same compound, in data set [3] (TPB 10^-5 M), the “TPB-induced enhancement of Tc-MIBI accumulation” value is recorded as “did not interfere with the TPB-induced enhancement of Tc-MIBI accumulation”.

Turning to `c1ccc([P+](c2ccccc2)(c2ccccc2)c2ccccc2)cc1` [TPP^+, tetraphenylphosphonium], the “toxic effects on mitochondrial function” value in data set [4] is on record as “toxic effects on mitochondrial function”. `CO[C@@H]1C[C@@H](C[C@H]2CC[C@H](C)[C@H]([C@@H](C)C(=O)O)O2)O[C@]2(O[C@](C)([C@H]3CC[C@@](C)([C@@H]4O[C@@H]([C@H]5O[C@@](O)(CO)[C@H](C)C[C@@H]5C)C[C@@H]4C)O3)C[C@H]2C)[C@@H]1C` [nigericin]: the “net cellular uptake of Tc-MIBI” value in data set [1] (nigericin, mitochondrial hyperpolarization) was “increases net cellular uptake of Tc-MIBI”. For the compound `CC[C@H]1/C=C/C=C/C[C@@H](C)[C@H](O)[C@@](C)(O)C(=O)[C@@H](C)[C@H](O)[C@@H](C)C(=O)[C@@H](C)[C@H](O)[C@@H](C)/C=C/C(=O)O[C@@H]2[C@H](C)[C@H](CC1)O[C@]1(CC[C@H](C)[C@H](C[C@@H](C)O)O1)[C@H]2C` [oligomycin], the “Tc-MIBI uptake or retention” value in data set [1] (oligomycin, mitochondrial hyperpolarization) is “increases Tc-MIBI uptake or retention”. Take `O=C(CCc1ccc(O)cc1)c1c(O)cc(O)cc1O` [phloretin, 3-(4-hydroxyphenyl)-1-(2,4,6-trihydroxyphenyl)-1-propanone]: the fold induction at 100 µM in data set [5] (Gallus gallus, 0.5 h, phloretin 10^-4 M, 30 minute uptake (FIG. 8), approximately, read-out: net retention of Tc-MIBI above control levels) lay within 2.5 to 3.5. Moreover, in data set [5] (phloretin 10^-4 M and 10^-5 M with 10^-5 M TPB, 30 minutes), the “additive enhancement by tetraphenylborate and phloretin” value is “no evidence of additive enhancement by tetraphenylborate and phloretin”. Moreover, the “net uptake of Tc-MIBI enhanced above control” value in data set [5] (phloretin 10^-4 M, within 30 minutes (FIG. 7)) is on record as “five-fold”. With `[N-]=[N+]=[N-]` [sodium azide], the “net uptake of Tc-MIBI” value in data set [1] (sodium azide in combination with oligomycin) is on record as “virtually eliminates net uptake of the agent”. For `CC(C)[C@@H]1NC(=O)[C@H](C)OC(=O)[C@@H](C(C)C)NC(=O)[C@@H](C(C)C)OC(=O)[C@H](C(C)C)NC(=O)[C@H](C)OC(=O)[C@@H](C(C)C)NC(=O)[C@@H](C(C)C)OC(=O)[C@H](C(C)C)NC(=O)[C@H](C)OC(=O)[C@@H](C(C)C)NC(=O)[C@@H](C(C)C)OC1=O` [valinomycin, reference compound], in data set [6], the “net accumulation of Tc-MIBI” value is “eliminated net accumulation of Tc-MIBI”.
